Assay results taken from patent publication US20030157154A1, “Compositions containing hydroxy aromatic aldehydes and their use in treatments” (priority 2002, published 2003).

Tests used:
[1] = tested on: PGE-2; assay: IL-1 induced PGE-2 in human skin fibroblasts (ELISA of culture medium); type: cell-based; details: Skin fibroblast, IL-1 500 picograms/ml, 24 hours, read-out: percent inhibition of IL-1 induced PGE-2; for inhibition at 1 µM: compound 1 μM; for inhibition at 10 µM: compound 10 μM; for inhibition at 50 µM: compound 50 μM
Method: (§1) For this experiment, human skin fibroblasts were seeded into 12 well culture dishes at a density of 80,000 cells/well in tissue culture medium and left overnight to attach to the dish. The next day, medium was removed and replaced with fresh medium containing either 1% ethanol as a diluent control, IL-1 at a concentration of 500 picograms/ml, or IL-1 plus one of the compounds under investigation at a concentration of 1, 10, 50 or 100 μM. Cells were incubated for an additional 24 hours and at this time, the medium was removed and assayed by ELISA for the presence of PGE-2 in the culture medium.

[2] = tested on: PGE-2; assay: TPA-induced PGE-2 in human skin keratinocytes (ELISA of culture medium); type: cell-based; details: TPA 32 nM
Method: as §1
Similar in vitro studies as those described in Example 1 were run using human skin keratinocytes except that the aromatic aldehyde was not added t. The experimental set up was the same as described for Example 1, but replacing IL-1 with tetradecanoyl phorbol acetate (TPA) at a concentration of 32 nM as the agonist. Samples of 3,5-Di-tert-butyl, 4- hydroxybenzaldehyde (DTHB) in concentrations of either 10, 50, or 100 μM were tested. […] However, treatment with DTHB blocked PGE-2 production by at least 50.

| SMILES | inhibition at 1 µM [1] [%] | inhibition at 10 µM [1] [%] | inhibition at 50 µM [1] [%] | inhibition at 10 µM ([2]; Keratinocyte, compound 10 μM, read-out: percent inhibition of TPA-induced PGE-2) [%] | blocked PGE-2 production ([2]; DTHB 10, 50, or 100 μM) |
| --- | --- | --- | --- | --- | --- |
| CC(C)(C)c1cc(C=O)cc(C(C)(C)C)c1O [DTHB, 3,5 di-tert-butyl-4-hydroxybenzaldehyde] | 3.3 | 44.4 | 100 | 87.9 | at least 50 |
| CCOc1ccc(C=O)cc1 [4-EB, 4-ethoxybenzaldehyde, reference compound] | 10 | 6 | 100 | – | – |
